Assay results as given in patent publication US9051270B2, “Pyridone amides as modulators of sodium channels” (Vertex Pharmaceuticals Incorporated, priority 2013, dated 2015).

Target: human Nav1.8 (Homo sapiens (Human), UniProt Q9Y5Y9)
Assay: E-VIPR optical membrane potential assay with electrical stimulation
Format: cell-based
Conditions: HEK cells expressing human Nav1.8
Source text: Sodium channels are voltage-dependent proteins that can be activated by inducing membrane voltage changes by applying electric fields. […] The instrument comprises a microtiter plate handler, an optical system for exciting the coumarin dye while simultaneously recording the coumarin and oxonol emissions, a waveform generator, a current- or voltage-controlled amplifier, and a device for inserting electrodes in well. Under integrated computer control, this instrument passes user-programmed electrical stimulus protocols to cells within the wells of the microtiter plate.
24 hours before the assay on E-VIPR, HEK cells expressing human Nav1.8 were seeded in 384-well poly-lysine coated plates at 15,000-20,000 cells per well. […] Cells were grown in vented cap flasks, in 90% humidity and 5% CO2.
To make the solution added volume of 10% Pluronic F127 stock equal to volumes of CC2-DMPE+DiSBAC6(3). The order of preparation was first mixing Pluronic and CC2-DMPE, then adding DiSBAC6(3) while vortexing, then adding Bath1+β-Cyclodextrin.
1) Pre-spotted compounds (in neat DMSO) into compound plates. […] Final compound plate volume was 80 μL (80-fold intermediate dilution from 1 μL DMSO spot; 160-fold final dilution after transfer to cell plate).
2) Prepared Hexyl Dye Solution.
3) Prepared cell plates. On the day of the assay, medium was aspirated and cells were washed three times with 100 μL of Bath1 Solution, maintaining 25 μL residual volume in each well.
4) Dispensed 25 μL per well of Hexyl Dye Solution into cell plates. Incubated for 20-35 minutes at room temp or ambient conditions.
5) Dispensed 80 μL per well of Bath1 into compound plates. Acid Yellow-17 (1 mM) was added and Potassium Chloride was altered from 4.5 to 20 mM depending on the NaV subtype and assay sensitivity.
6) Washed cell plates three times with 100 μL per well of Bath1, leaving 25 μL of residual volume. Then transferred 25 uL per well from Compound Plates to Cell Plates. Incubated for 20-35 minutes at room temp/ambient condition.
7) Read Plate on E-VIPR. […] A pre-stimulus recording was performed for 0.5 seconds to obtain the un-stimulated intensities baseline. The stimulatory waveform was followed by 0.5 seconds of post-stimulation recording to examine the relaxation to the resting state.
Data was analyzed and reported as normalized ratios of emission intensities measured in the 460 nm and 580 nm channels. The response as a function of time was reported as the ratios obtained using the following formula: […]
The data was further reduced by calculating the initial (Ri) and final (Rf) ratios. These were the average ratio values during part or all of the pre-stimulation period, and during sample points during the stimulation period. The response to the stimulus R=Rf/Ri was then calculated and reported as a function of time.
Control responses were obtained by performing assays in the presence of a compound with the desired properties (positive control), such as tetracaine, and in the absence of pharmacological agents (negative control). Responses to the negative (N) and positive (P) controls were calculated as above. The compound antagonist activity A is defined as:
[formula] where R is the ratio response of the test compound

Chain of human Nav1.8 (Q9Y5Y9 whole entry): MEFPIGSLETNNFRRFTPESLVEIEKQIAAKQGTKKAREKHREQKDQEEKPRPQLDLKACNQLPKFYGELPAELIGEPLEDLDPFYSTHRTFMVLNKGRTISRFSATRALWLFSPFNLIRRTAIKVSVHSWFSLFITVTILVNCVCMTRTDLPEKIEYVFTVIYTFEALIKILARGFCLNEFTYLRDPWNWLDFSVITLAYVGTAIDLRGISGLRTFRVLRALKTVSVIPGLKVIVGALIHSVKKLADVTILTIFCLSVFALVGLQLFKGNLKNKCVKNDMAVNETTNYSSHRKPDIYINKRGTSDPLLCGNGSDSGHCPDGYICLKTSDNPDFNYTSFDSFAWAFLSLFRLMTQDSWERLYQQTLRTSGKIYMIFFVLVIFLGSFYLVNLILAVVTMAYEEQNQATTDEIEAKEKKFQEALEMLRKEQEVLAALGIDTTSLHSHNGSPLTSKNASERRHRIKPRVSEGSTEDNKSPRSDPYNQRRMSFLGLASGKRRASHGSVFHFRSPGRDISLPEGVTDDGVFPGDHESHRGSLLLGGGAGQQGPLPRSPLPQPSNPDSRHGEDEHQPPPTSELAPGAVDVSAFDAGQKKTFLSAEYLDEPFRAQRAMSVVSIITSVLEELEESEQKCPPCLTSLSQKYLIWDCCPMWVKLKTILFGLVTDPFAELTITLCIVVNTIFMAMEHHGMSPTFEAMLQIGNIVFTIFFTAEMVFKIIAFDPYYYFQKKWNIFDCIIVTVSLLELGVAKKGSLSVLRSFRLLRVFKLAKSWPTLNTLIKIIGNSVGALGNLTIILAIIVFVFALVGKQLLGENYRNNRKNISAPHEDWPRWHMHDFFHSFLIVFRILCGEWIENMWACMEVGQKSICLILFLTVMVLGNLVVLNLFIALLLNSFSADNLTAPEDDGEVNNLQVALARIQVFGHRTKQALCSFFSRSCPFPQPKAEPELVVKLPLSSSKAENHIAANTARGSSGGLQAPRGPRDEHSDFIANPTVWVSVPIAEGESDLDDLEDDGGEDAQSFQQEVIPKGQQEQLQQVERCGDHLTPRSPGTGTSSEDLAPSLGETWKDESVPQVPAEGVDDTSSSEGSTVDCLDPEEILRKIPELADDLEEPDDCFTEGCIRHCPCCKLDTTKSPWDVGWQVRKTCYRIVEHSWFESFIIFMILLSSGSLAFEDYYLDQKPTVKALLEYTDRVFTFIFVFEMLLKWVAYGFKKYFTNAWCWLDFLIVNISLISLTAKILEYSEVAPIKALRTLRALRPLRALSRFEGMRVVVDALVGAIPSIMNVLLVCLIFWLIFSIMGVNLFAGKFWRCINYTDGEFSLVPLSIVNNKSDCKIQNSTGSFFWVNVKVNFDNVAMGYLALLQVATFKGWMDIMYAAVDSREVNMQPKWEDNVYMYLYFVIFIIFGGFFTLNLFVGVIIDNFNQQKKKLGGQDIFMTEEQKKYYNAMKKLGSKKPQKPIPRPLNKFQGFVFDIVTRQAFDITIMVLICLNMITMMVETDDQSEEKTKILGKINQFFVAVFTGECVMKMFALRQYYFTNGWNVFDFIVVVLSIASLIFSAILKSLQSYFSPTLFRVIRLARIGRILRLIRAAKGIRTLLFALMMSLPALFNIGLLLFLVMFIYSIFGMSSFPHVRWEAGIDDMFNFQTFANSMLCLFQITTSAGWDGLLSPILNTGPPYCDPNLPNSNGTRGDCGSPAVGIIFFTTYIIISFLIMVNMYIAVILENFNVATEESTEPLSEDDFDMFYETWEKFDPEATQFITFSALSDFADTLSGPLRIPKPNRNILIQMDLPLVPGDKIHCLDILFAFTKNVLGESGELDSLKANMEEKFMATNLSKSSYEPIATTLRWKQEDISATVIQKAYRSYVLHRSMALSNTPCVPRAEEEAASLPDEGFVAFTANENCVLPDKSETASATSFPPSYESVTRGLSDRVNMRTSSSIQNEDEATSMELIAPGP

Compound	IC50 [nM]
2-(4-fluorophenoxy)-N-(1-(2-hydroxyethyl)-2-oxo-1,2-dihydropyridin-4-yl)-4-(trifluoromethyl)benzamide [Compound 85]	2800
O=C(Nc1ccc(=O)[nH]c1)c1ccccc1Oc1ccc(F)cc1 [Compound 3, 2-(4-fluorophenoxy)-N-(6-oxo-1,6-dihydropyridin-3-yl)benzamide]	13500
O=C(Nc1ccc(=O)[nH]c1)c1cc(C(F)(F)F)ccc1Oc1ccc(F)cc1 [Compound 4, 2-(4-fluorophenoxy)-N-(6-oxo-1,6-dihydropyridin-3-yl)-5-(trifluoromethyl)benzamide]	350
O=C(Nc1ccc(=O)[nH]c1)c1ccc(C(F)(F)F)cc1Oc1ccc(F)cc1 [Compound 6, 2-(4-fluorophenoxy)-N-(6-oxo-1,6-dihydropyridin-3-yl)-4-(trifluoromethyl)benzamide]	245
Cc1ccc(Oc2cc(C(F)(F)F)ccc2C(=O)Nc2cc[nH]c(=O)c2)cc1 [Compound 12, N-(2-oxo-1,2-dihydropyridin-4-yl)-2-(p-tolyloxy)-4-(trifluoromethyl)benzamide]	106
O=C(Nc1cc[nH]c(=O)c1)c1ccc(Cl)cc1Oc1ccc(F)cc1F [Compound 13, 4-chloro-2-(2,4-difluorophenoxy)-N-(2-oxo-1,2-dihydropyridin-4-yl)benzamide]	106
O=C(Nc1cc[nH]c(=O)c1)c1ccc(Cl)cc1Oc1ccc(F)cc1Cl [Compound 14, 4-chloro-2-(2-chloro-4-fluorophenoxy)-N-(2-oxo-1,2-dihydropyridin-4-yl)benzamide]	65
Cc1cccc(F)c1Oc1cc(Cl)ccc1C(=O)Nc1cc[nH]c(=O)c1 [Compound 17, 4-chloro-2-(2-fluoro-6-methylphenoxy)-N-(2-oxo-1,2-dihydropyridin-4-yl)benzamide]	1800
O=C(Nc1cc[nH]c(=O)c1)c1ccc(Cl)cc1Oc1c(F)cccc1Cl [Compound 18, 4-chloro-2-(2-chloro-6-fluorophenoxy)-N-(2-oxo-1,2-dihydropyridin-4-yl)benzamide]	12000
O=C(Nc1cc[nH]c(=O)c1)c1cc(C(F)(F)F)ccc1Oc1ccc(F)cc1F [Compound 24, 2-(2,4-difluorophenoxy)-N-(2-oxo-1,2-dihydropyridin-4-yl)-5-(trifluoromethyl)benzamide]	58
Cc1ccc(Oc2ccc(C(F)(F)F)cc2C(=O)Nc2cc[nH]c(=O)c2)cc1 [Compound 27, N-(2-oxo-1,2-dihydropyridin-4-yl)-2-(p-tolyloxy)-5-(trifluoromethyl)benzamide]	340
Cc1ccccc1Oc1ccc(OC(F)(F)F)cc1C(=O)Nc1cc[nH]c(=O)c1 [Compound 36, N-(2-oxo-1,2-dihydropyridin-4-yl)-2-(o-tolyloxy)-5-(trifluoromethoxy)benzamide]	101
O=C(Nc1cc[nH]c(=O)c1)c1cc(OC(F)(F)F)ccc1Oc1ccc(F)cc1 [Compound 38, 2-(4-fluorophenoxy)-N-(2-oxo-1,2-dihydropyridin-4-yl)-5-(trifluoromethoxy)benzamide]	69
COc1cc(F)ccc1Oc1ccc(OC(F)(F)F)cc1C(=O)Nc1cc[nH]c(=O)c1 [Compound 42, 2-(4-fluoro-2-methoxyphenoxy)-N-(2-oxo-1,2-dihydropyridin-4-yl)-5-(trifluoromethoxy)benzamide]	68
O=C(Nc1cc[nH]c(=O)c1)c1c(Oc2ccc(F)cc2)cccc1C(F)(F)F [Compound 43, 2-(4-fluorophenoxy)-N-(2-oxo-1,2-dihydropyridin-4-yl)-6-(trifluoromethyl)benzamide]	380

Next, values leading:

IC50 [nM]	Compound
1090	O=C(Nc1cc[nH]c(=O)c1)c1ccccc1Oc1ccc(F)cc1 [Compound 1, 2-(4-fluorophenoxy)-N-(2-oxo-1,2-dihydropyridin-4-yl)benzamide]
39	O=C(Nc1cc[nH]c(=O)c1)c1ccc(C(F)(F)F)cc1Oc1ccc(F)cc1 [Compound 5, 2-(4-fluorophenoxy)-N-(2-oxo-1,2-dihydropyridin-4-yl)-4-(trifluoromethyl)benzamide]
93	O=C(Nc1cc[nH]c(=O)c1)c1ccc(C(F)(F)F)cc1Oc1ccccc1 [Compound 9, N-(2-oxo-1,2-dihydropyridin-4-yl)-2-phenoxy-4-(trifluoromethyl)benzamide]
56	Cc1ccccc1Oc1cc(C(F)(F)F)ccc1C(=O)Nc1cc[nH]c(=O)c1 [Compound 11, N-(2-oxo-1,2-dihydropyridin-4-yl)-2-(o-tolyloxy)-4-(trifluoromethyl)benzamide]
14	COc1cc(F)ccc1Oc1cc(Cl)ccc1C(=O)Nc1cc[nH]c(=O)c1 [Compound 16, 4-chloro-2-(4-fluoro-2-methoxyphenoxy)-N-(2-oxo-1,2-dihydropyridin-4-yl)benzamide]
6000	O=C(Nc1cc[nH]c(=O)c1)c1ccc(Cl)cc1Oc1c(F)cccc1F [Compound 19, 4-chloro-2-(2,6-difluorophenoxy)-N-(2-oxo-1,2-dihydropyridin-4-yl)benzamide]
843	N#Cc1ccc(C(=O)Nc2cc[nH]c(=O)c2)c(Oc2ccc(F)cc2)c1 [Compound 21, 4-cyano-2-(4-fluorophenoxy)-N-(2-oxo-1,2-dihydropyridin-4-yl)benzamide]
100	COc1cc(F)ccc1Oc1cc(C#N)ccc1C(=O)Nc1cc[nH]c(=O)c1 [Compound 22, 4-cyano-2-(4-fluoro-2-methoxyphenoxy)-N-(2-oxo-1,2-dihydropyridin-4-yl)benzamide]
1500	Cc1cc(F)ccc1Oc1cc(C#N)ccc1C(=O)Nc1cc[nH]c(=O)c1 [Compound 23, 4-cyano-2-(4-fluoro-2-methylphenoxy)-N-(2-oxo-1,2-dihydropyridin-4-yl)benzamide]
1100	N#Cc1ccc(Oc2ccc(C(F)(F)F)cc2C(=O)Nc2cc[nH]c(=O)c2)cc1 [Compound 25, 2-(4-cyanophenoxy)-N-(2-oxo-1,2-dihydropyridin-4-yl)-5-(trifluoromethyl)benzamide]
9650	O=C(Nc1cc[nH]c(=O)c1)c1cc(C(F)(F)F)ccc1Oc1c(F)cccc1F [Compound 26, 2-(2,6-difluorophenoxy)-N-(2-oxo-1,2-dihydropyridin-4-yl)-5-(trifluoromethyl)benzamide]
205	O=C(Nc1cc[nH]c(=O)c1)c1cc(C(F)(F)F)ccc1Oc1ccccc1 [Compound 32, N-(2-oxo-1,2-dihydropyridin-4-yl)-2-phenoxy-5-(trifluoromethyl)benzamide]
12000	O=C(Nc1cc[nH]c(=O)c1)c1cc(OC(F)(F)F)ccc1Oc1c(F)cccc1F [Compound 34, 2-(2,6-difluorophenoxy)-N-(2-oxo-1,2-dihydropyridin-4-yl)-5-(trifluoromethoxy)benzamide]
470	Cc1ccc(Oc2ccc(OC(F)(F)F)cc2C(=O)Nc2cc[nH]c(=O)c2)cc1 [Compound 35, N-(2-oxo-1,2-dihydropyridin-4-yl)-2-(p-tolyloxy)-5-(trifluoromethoxy)benzamide]
690	Cc1cccc(F)c1Oc1ccc(OC(F)(F)F)cc1C(=O)Nc1cc[nH]c(=O)c1 [Compound 39, 2-(2-fluoro-6-methylphenoxy)-N-(2-oxo-1,2-dihydropyridin-4-yl)-5-(trifluoromethoxy)benzamide]
40	Cc1cc(F)ccc1Oc1ccc(OC(F)(F)F)cc1C(=O)Nc1cc[nH]c(=O)c1 [Compound 40, 2-(4-fluoro-2-methylphenoxy)-N-(2-oxo-1,2-dihydropyridin-4-yl)-5-(trifluoromethoxy)benzamide]
260	O=C(Nc1cc[nH]c(=O)c1)c1cc(OC(F)(F)F)ccc1Oc1ccccc1 [Compound 41, N-(2-oxo-1,2-dihydropyridin-4-yl)-2-phenoxy-5-(trifluoromethoxy)benzamide]
64	COc1ccc(Oc2ccc(C(F)(F)F)cc2C(=O)Nc2cc[nH]c(=O)c2)cc1 [Compound 45, 2-(4-methoxyphenoxy)-N-(2-oxo-1,2-dihydropyridin-4-yl)-5-(trifluoromethyl)benzamide]
64	CCOc1ccccc1Oc1ccc(C(F)(F)F)cc1C(=O)Nc1cc[nH]c(=O)c1 [Compound 46, 2-(2-ethoxyphenoxy)-N-(2-oxo-1,2-dihydropyridin-4-yl)-5-(trifluoromethyl)benzamide]
